Results reported in patent US20050271606A1, “Composition for treating inflammation which contains zinc pyrrolidonecarboxylate” (priority 2004, published 2005).

What was measured:
Assay type in all cases: cell-based
AP-1 = assay: Action on AP-1 activation by ultraviolet ray (UVA) in human dermal fibroblasts, activated AP-1 in nucleoprotein (gel shift or ELISA assay); conditions: 50 μM, 18 h incubation, UVA 20 J/cm^2
Description: (§1) The fibroblasts were irradiated with ultraviolet rays (UVA: 20 J/cm^2) using Dermaray M-DMR-80 (manufactured by Toshiba Iryoyohin). After 4 to 5 hours, the fibroblasts were recovered and the nucleoprotein was extracted therefrom by a conventional method. The resulting nucleoprotein was subjected to a gel shift assay or an ELISA assay (TransAM Kit, ACTIVE MOTIF) to detect activated AP-1. When applying the gel shift assay, the radioactive value of the AP-1 band was measured using a bio-imaging analyzer BAS 2000 (manufactured by Fuji Photo Film).
The suppression rate of the test compound for AP-1 activation was calculated from the following formula. Suppression Rate for AP-1 Activation (%)={1−(A1−A3)/(A2−A3)}×100 A1: radioactive value of AP-1 band when a test compound was added A2: radioactive value of AP-1 band when no test compound was added A3: radioactive value of AP-1 band when no test compound was added and no irradiation with ultraviolet rays

AP-1 (c-Jun) = assay: AP-1 activation by ultraviolet ray in human dermal fibroblasts, ELISA assay (TransAM Kit), quantity of c-Jun; conditions: 18 h incubation, UVA 20 J/cm^2, ELISA
Description: as §1
(§2) An ELISA assay was performed in accordance with the manual of the kit used, and the activation of AP-1 was obtained by determination of the quantity of c-Jun or c-Fos.
(§3) The suppression rate of AP-1 (c-Jun or c-Fos) activation of a test compound was calculated from the following formula. Suppression Rate for AP-1 Activation (%)={1−{B1−B3)/(B2−B3)}×100 B1: 450 nm absorbance when a test compound was added (per nucleoprotein) B2: 450 nm absorbance when no test compound was added (per nucleoprotein) B3: 450 nm absorbance when no test compound was added and no ultraviolet ray was irradiated (per nucleoprotein)

AP-1 (c-Fos) = assay: AP-1 activation by ultraviolet ray in human dermal fibroblasts, ELISA assay (TransAM Kit), quantity of c-Fos; conditions: 18 h incubation, UVA 20 J/cm^2, ELISA
Description: as §1, §2, §3

Row | Molecule | Suppressing Rate (%) for AP-1 activation (AP-1) | Suppressing Rate (%) (c-Jun) (AP-1 (c-Jun); 10 μM) | Suppressing Rate (%) (c-Jun) (AP-1 (c-Jun); 100 μM) | Suppressing Rate (%) (c-FOS) (AP-1 (c-Fos); 10 μM) | Suppressing Rate (%) (c-FOS) (AP-1 (c-Fos); 100 μM)
1 | O=C1CCC(C(=O)[O-])N1.O=C1CCC(C(=O)[O-])N1.[Zn+2] (racemic) [Zinc DL-Pyrrolidonecarboxylate] | 38.8% | – | – | – | –
2 | O=C1CC[C@@H](C(=O)[O-])N1.O=C1CC[C@@H](C(=O)[O-])N1.[Zn+2] [Zinc L-Pyrrolidonecarboxylate] | – | 109.5% | 106.7% | 69.3% | 77.0%
3 | NCC(=O)[O-].NCC(=O)[O-].[Zn+2] [Zinc Salt of Glycine] | −72.8% | – | – | – | –
4 | Zinc Laurate | 9.1% | – | – | – | –
